Data published in PMC10812941, “Selenium-Containing (Hetero)Aryl Hybrids as Potential Antileishmanial Drug Candidates: In Vitro Screening against L. amazonensis” (Biomedicines, 2024).
Where two headings read alike, the source gives them in different places.

Experiments:
in vitro [1] = conditions: mouse
[2] = tested on: L. amazonensis intracellular amastigotes; test: Anti-amastigote assay in infected murine peritoneal macrophages; conditions: for IC50: Leishmania amazonensis, Peritoneal macrophage, in Mus musculus, 24 h, read-out: IC50 L. amazonensis Amastigotes
Experimental: (§1) Parasites in the exponential growth phase were used for the in vitro anti-promastigote assay, while those in the stationary phase were used for the anti-amastigote assay. Intracellular amastigote forms were obtained by infecting murine peritoneal macrophages with promastigotes.
Plates were incubated at 37 °C with 5% CO2 for 1 h to allow adhesion, which was confirmed by microscopy. […] Supernatants were removed after treatment, and cells were washed twice with PBS, fixed with Bouin’s solution (Sigma-Aldrich, USA), and stained with Giemsa (Sigma-Aldrich, USA) diluted 1:10 in distilled water. Coverslips were dehydrated through an acetone/xylene gradient (100%, 70%, 50%, 30%, and 100% each from Sigma-Aldrich) and mounted for microscopic visualization. The total number of intracellular amastigotes was counted in 200 cells per coverslip in three replicates using an optical microscope. The half-maximal inhibitory concentration (IC50) values were calculated for each compound using a nonlinear regression curve in GraphPad Prism 5.0 software (GraphPad Software, San Diego, CA, USA).

in vitro [3] = conditions: mouse; remark: listed apart in the source
[4] = tested on: L. amazonensis promastigotes; test: Anti-promastigote assay (resazurin viability); conditions: for Selectivity Index (SI) CC50 J774 / IC50 promastigotes: J774A.1 vs promastigotes; for IC50: 48 h; for Selectivity Index (SI) CC50 NIH/3T3 / IC50 promastigotes: NIH/3T3 vs promastigotes; for SI (CC50 on murine peritoneal macrophages/IC50 on promastigotes): peritoneal macrophages vs promastigotes
Experimental: as §1
Cell viability was assessed using the resazurin (Sigma-Aldrich) assay. A solution of resazurin (Sigma-Aldrich, USA) at 0.2 mg·mL^−1 was added to each well, and after 4 h of incubation at 26 °C, the absorbances at 570 nm and 600 nm were acquired, and the viability calculation for all wells was performed based on the formula and instructions provided by the AlamarBlue® manufacturer’s website (Bio-Rad, Hercules, CA, USA) [41]. Cell viability was evaluated from the optical density and compared to untreated cells. […] The half-maximal inhibitory concentration (IC50) values for each compound were calculated using a nonlinear dose–response regression curve generated by Prism 5 (GraphPad Software, USA).

[5] = Leishmania amazonensis, read-out: IC50 L. amazonensis Promastigotes, 48 h, resazurin
[6] = read-out: IC50 L. amazonensis Promastigotes, resazurin

Row | SMILES | CC50 at 48 h (in vitro [1]; J774A.1 macrophage cells) | Selectivity Index (SI) CC50 J774 / IC50 amastigotes ([2]; J774A.1 vs intracellular amastigotes) | IC50 [2] | Selectivity Index (SI) CC50 NIH/3T3 / IC50 amastigotes ([2]; NIH/3T3 vs intracellular amastigotes) | CC50 at 48 h (in vitro [3]; NIH/3T3 fibroblast cells) | Selectivity Index (SI) CC50 J774 / IC50 promastigotes [4] | IC50 [4, 5] | Selectivity Index (SI) CC50 NIH/3T3 / IC50 promastigotes [4] | SI (CC50 on murine peritoneal macrophages/IC50 on promastigotes) [4] | IC50 [4, 6] | CC50 at 48 h (in vitro [1]) | CC50 at 48 h (in vitro [3]) | SI (CC50 on murine peritoneal macrophages/IC50 on promastigotes) ([4]; listed as 105) | Selectivity Index (SI) CC50 J774 / IC50 amastigotes [2] | Selectivity Index (SI) CC50 NIH/3T3 / IC50 amastigotes [2] | SI (CC50 on murine peritoneal macrophages/IC50 on promastigotes) ([4]; listed as 108)
1 | C[C@@H]1[C@H](O)[C@@H](C)/C=C/C=C/C=C/C=C/C=C/C=C/C=C/[C@H](O[C@@H]2O[C@H](C)[C@@H](O)[C@H](N)[C@@H]2O)C[C@@H]2O[C@](O)(C[C@@H](O)C[C@@H](O)[C@H](O)CC[C@@H](O)C[C@@H](O)CC(=O)O[C@H]1C)C[C@H](O)[C@H]2C(=O)O [ANFB, amphotericin B, reference compound] | 27.3 ± 0.92 µM | 28.19 | 0.97 ± 1.14 µM | 25.92 | 19.3 ± 1.01 µM | 2.91 | 9.41 ± 1.13 µM | 2.05 | 2.67 | 9.4 ± 1.13 µM | – | – | – | – | – | –
2 | Oc1ccc2ccccc2c1[Se]c1ccccc1 [MRK-102] | – | – | > 50 µM | – | – | – | 15.2 ± 1.12 µM | – | 13.20 | – | > 200 µM | > 200 µM | – | – | – | –
3 | Cc1ccc(-c2nnc([Se]c3ccccc3)o2)cc1 [MRK-103] | – | – | > 50 µM | – | – | – | 15.5 ± 1.13 µM | – | 12.92 | – | > 200 µM | > 200 µM | – | – | – | –
4 | CC(C)(C)c1cc(O)cc(C(C)(C)C)c1[Se]C#N [MRK-105] | – | – | > 50 µM | – | – | 4.94 | 15.5 µM | 7.22 | 12.92 | 12.2 ± 1.12 µM | – | – | 16.43 | – | – | –
5 | COc1ccccc1[Se]c1c(-c2ccccc2)nc2cc(C)ccn12 [MRK-107] | – | – | 18.3 ± 1.5 µM | – | – | 7.31 | 27.4 ± 1.24 µM | 7.31 | 7.31 | – | > 200 µM | > 200 µM | – | 10.92 | 10.92 | –
6 | N#C[Se]Cc1cc(=O)oc2cc(O)ccc12 [MRK-108] | – | – | > 50 µM | – | – | – | 4.23 ± 2 µM | – | > 47.31 | – | > 200 µM | > 200 µM | – | – | – | 47.31
7 | Cc1cn2c([Se]c3ccccc3)c(-c3ccccc3)nc2s1 [MRK-111] | – | – | > 50 µM | – | – | – | 17.6 ± 1.18 µM | – | 11.40 | – | > 200 µM | > 200 µM | – | – | – | –
8 | Cc1ccn2c([Se]c3ccccc3)c(-c3ccccc3)nc2c1 [MRK-113] | – | – | 15.9 ± 1.69 µM | – | – | 4.88 | 41 ± 1.31 µM | 4.88 | 4.88 | – | > 200 µM | > 200 µM | – | 12.55 | 12.55 | –
